Reference: patent US20250032527A1, “MEDICAL USE OF N4-HYDROXY CITICOLINE COMPOUNDS” (IMMUNIC AG, priority 2021, published 2025)

Experiments:
SARS-COV-2 = experiment: microbe, parasite or virus in culture; format: cell-based; details: Severe acute respiratory syndrome coronavirus 2
SARS-COV-2 d6-YFP = experiment: Combinatorial drug assessment by viral replication inhibition assay (CompuSyn); format: cell-based
RSV A2 = experiment: RSV virus titers by endpoint titration (CCID50), mono and combination; format: cell-based; details: for RSV Virus Titers: MA-104 cells, virus control 4.0
HRV-14 = HRV-14 virus titers by endpoint titration (CCID50), mono and combination; format: cell-based; details: for HRV-14 Virus Titers: Hela cells, virus control 6.7
physchem [1] = details: pH 7.4, aqueous buffer, kinetic from dmso stock
physchem [2] = details: fassgf or other biorelevant, kinetic from dmso stock
physchem [3] = details: simulated gastric fluid
physchem [4] = details: pH 7.4
in vitro [5] = details: human
in vitro [6] = details: human, HeLa cells
in vitro [7] = details: dog, MDCK cells
in vitro [8] = details: African green monkey, MA-104 cells
[9] = A-B permeability (Caco-2, pH 6.5/7.4); details: human, A-B, Caco-2, pH 6.5/7.4, test conc. 1.0E−05M
Caco-2 = experiment: A-B permeability (Caco-2, pH 6.5/7.4); details: low solubility, high permeability
[10] = B-A permeability (Caco-2, pH 6.5/7.4); details: human, test conc. 1.0E−05M
[11] = tested on: human rhinovirus 14 (HRV-14); experiment: microbe, parasite or virus in culture; details: Rhinovirus B, HRV14, HeLa
[12] = tested on: influenza A (H1N1, California/07/2009); experiment: microbe, parasite or virus in culture; details: H1N1, MDCK
[13] = tested on: respiratory syncytial virus (RSV) A2; experiment: microbe, parasite or virus in culture; details: human respiratory syncytial virus, MA104
[14] = Example 1 combined with a DHODH inhibitor
[15] = Caco-2, pH 6.5, Percent Recovery 1st
[16] = Caco-2, pH 6.5, Percent Recovery 2nd
[17] = Caco-2, pH 6.5, Percent Recovery Mean
[18] = Caco-2, pH 6.5, Permeability 1st
[19] = Caco-2, pH 6.5, Permeability 2nd
[20] = Caco-2, pH 6.5, Permeability Mean

## C[N+](C)(C)CCOP(=O)([O-])OP(=O)([O-])OC[C@H]1O[C@@H](n2ccc(NO)nc2=O)[C@H](O)[C@@H]1O.[Na+] [Example 1, 2-(((((((2R,3S,4R,5R)-3,4-Dihydroxy-5-(4-(hydroxyamino)-2-oxopyrimidin-1 (2H)-yl)tetrahydrofuran-2-yl)methoxy) (hydroxy)phosphoryl)oxy)oxidophosphoryl)oxy)-N,N,N-trimethylethan-1-aminium mono sodium salt]
SARS-COV-2
  EC50: < 10 µM
SARS-COV-2 d6-YFP
  combinatorial antiviral effect: synergistic
RSV A2; Conc. 0.0079 μM
  RSV Virus Titers: 4.5 CCID50/mL (Log10)
RSV A2; Conc. 0.025 μM
  RSV Virus Titers: 4.0 CCID50/mL (Log10)
RSV A2; Conc. 0.079 μM
  RSV Virus Titers: 3.5 CCID50/mL (Log10)
RSV A2; Conc. 0.25 μM
  RSV Virus Titers: 4.0 CCID50/mL (Log10)
RSV A2; Conc. 0.79 μM
  RSV Virus Titers: 4.0 CCID50/mL (Log10)
RSV A2; Conc. 2.5 μM
  RSV Virus Titers: 3.5 CCID50/mL (Log10)
RSV A2; Conc. 7.9 μM
  RSV Virus Titers: 3.5 CCID50/mL (Log10)
RSV A2; Conc. 25 μM
  RSV Virus Titers: 3.5 CCID50/mL (Log10)
RSV A2; [14]
  combination behavior on RSV: synergistic
HRV-14; Conc. 0.0079 μM
  HRV-14 Virus Titers: 6.7 CCID50/mL (Log10)
HRV-14; Conc. 0.025 μM
  HRV-14 Virus Titers: 6.7 CCID50/mL (Log10)
HRV-14; Conc. 0.079 μM
  HRV-14 Virus Titers: 6.7 CCID50/mL (Log10)
HRV-14; Conc. 0.25 μM
  HRV-14 Virus Titers: 7.0 CCID50/mL (Log10)
HRV-14; Conc. 0.79 μM
  HRV-14 Virus Titers: 6.7 CCID50/mL (Log10)
HRV-14; Conc. 2.5 μM
  HRV-14 Virus Titers: 6.0 CCID50/mL (Log10)
HRV-14; Conc. 7.9 μM
  HRV-14 Virus Titers: 4.7 CCID50/mL (Log10)
HRV-14; Conc. 25 μM
  HRV-14 Virus Titers: 3.5 CCID50/mL (Log10)
HRV-14; [14]
  combination behavior on HRV-14: synergistic
Physchem [1]; Solubility 1st
  solubility: 14.2 µM
Physchem [1]; Solubility 2nd
  solubility: 14.4 µM
Physchem [1]; Solubility Mean
  solubility: 14.3 µM
Physchem [2]; Solubility 1st
  solubility: 13.9 µM
Physchem [2]; Solubility 2nd
  solubility: 18.3 µM
Physchem [2]; Solubility Mean
  solubility: 16.1 µM
Physchem [3]; Solubility 1st
  solubility: < 1 µM
Physchem [3]; Solubility 2nd
  solubility: < 1 µM
Physchem [3]; Solubility Mean
  solubility: < 1 µM
Physchem [4]
  logD: 0.52
In vitro [5]
  CC50: > 100 µM
In vitro [6]
  CC50: > 25 µM
In vitro [7]
  CC50: 25 µM
In vitro [8]
  CC50: 2400 nM
[9]; [15]
  recovery at 10 µM: 121%
[9]; [16]
  recovery at 10 µM: 115%
[9]; [17]
  recovery at 10 µM: 118%
[9]; [18]
  Papp at 10 µM: 36.1 ×10⁻⁶ cm/s
[9]; [19]
  Papp at 10 µM: 30.7 ×10⁻⁶ cm/s
[9]; [20]
  Papp at 10 µM: 33.4 ×10⁻⁶ cm/s
Caco-2
  biopharmaceutics classification: Class Il
[10]; [15]
  recovery at 10 µM: 91%
[10]; [16]
  recovery at 10 µM: 83%
[10]; [17]
  recovery at 10 µM: 87%
[10]; [18]
  Papp at 10 µM: 26.1 ×10⁻⁶ cm/s
[10]; [19]
  Papp at 10 µM: 21.2 ×10⁻⁶ cm/s
[10]; [20]
  Papp at 10 µM: 23.7 ×10⁻⁶ cm/s
[11]
  EC50: 4.7 µM
[12]
  EC50: 4.8 µM
[13]
  EC50: 1100 nM
